In US7919488B2, “Therapeutic compounds” (Pfizer Inc., priority 2006, dated 2011):

Columns and labels:
Format in all cases: biochemical
[1] = biological target: T1, CYP3A4 (Homo sapiens, UniProt P08684); experiment: IC50 against CYP3A4 by inhibition of testosterone metabolism in human liver microsomes; settings: 0.1 mg/mL human liver microsomes, 25 μM testosterone, 1 mM NADPH, 6-β-OH-testosterone production, eight minutes; read-out: IC50, μM (HLM, testosterone)
T1 construct: 0.1 mg/mL human liver microsomes; from tissue; host or cells: human liver microsomes
T1 sequence (P08684 whole entry): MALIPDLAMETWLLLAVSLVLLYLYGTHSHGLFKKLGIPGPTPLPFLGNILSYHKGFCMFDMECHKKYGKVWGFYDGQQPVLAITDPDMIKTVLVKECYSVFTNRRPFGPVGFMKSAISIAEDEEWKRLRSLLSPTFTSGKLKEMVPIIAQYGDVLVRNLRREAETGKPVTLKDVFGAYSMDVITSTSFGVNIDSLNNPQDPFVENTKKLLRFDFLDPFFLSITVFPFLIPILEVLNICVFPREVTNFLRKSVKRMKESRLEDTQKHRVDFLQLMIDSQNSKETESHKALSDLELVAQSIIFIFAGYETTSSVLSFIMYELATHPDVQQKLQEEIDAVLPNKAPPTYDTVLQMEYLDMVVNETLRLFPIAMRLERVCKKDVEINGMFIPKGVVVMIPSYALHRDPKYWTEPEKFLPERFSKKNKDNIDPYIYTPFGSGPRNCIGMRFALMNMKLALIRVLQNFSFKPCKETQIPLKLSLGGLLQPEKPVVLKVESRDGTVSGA
Experimental: 2. Determination of IC50 Against CYP3A4 by Measurement of Inhibition of Testosterone Metabolism
This assay was performed using a standard 96 well plate design. […] Quantitation of metabolite peak area ratio against an internal standard is determined by LC-MS/MS analysis. The production of 6-β-OH-testosterone from testosterone metabolism is determined after incubation for eight minutes by comparison to a standard curve generated for the metabolite
(§1) Samples were analyzed in the MRM mode using a Sciex API 3000 mass spectrometer (Applied Biosystems, Foster City, Calif.) with a Paradigm MS4 binary pump (Michrom BioResources Inc., Auburn, Calif.) and a LEAP CTC PAL autosampler (LEAP Technologies, Carrboro, N.C.). A Phenomenex Synergi, 4μ, Polar-RP, 10×2.0 mm column (Phenomenex, Torrance, Calif.) was used for separation with a mobile phase composition of: 0.1% formic acid in water (A) and: 0.1% formic acid in methanol (B). The following gradient was used: […]
(§2) The sample injection volume was 10 μL and flow was split post-column with 0.4 mL/min going to the mass spectrometer. Analysis was performed using the following API 3000 mass spectrometer settings: […]

[2] = biological target: T1, CYP3A4; experiment: IC50 against CYP3A4 by inhibition of midazolam metabolism in human liver microsomes; settings: 0.1 mg/mL human liver microsomes, 2 μM midazolam, 1 mM NADPH, 1-hydroxymidazolam production, eight minutes; read-out: IC50, μM (HLM, midazolam)
Experimental: 3. Determination of IC50 Against CYP3A4 by Measurement of Inhibition of Midazolam Metabolism
This assay was performed using a standard 96 well plate design. […] The incubation substrate mix contains 2 μM midazolam, 0.1 mg/mL human liver microsomes, 1 mM NADPH, and potassium phosphate buffer (100 mM, pH 7.4). Quantitation of metabolite peak area ratio against internal standard is determined by LC-MS/MS analysis. The production of 1-hydroxymidazolam from midazolam metabolism is determined after incubation for eight minutes by comparison to a standard curve generated for the metabolite.
as §1, §2

[3] = biological target: T2, recombinant CYP3A4-b5 enzyme (Baculosomes®) (Homo sapiens, UniProt P08684); experiment: Kiapp against recombinant CYP3A4 enzyme (Baculosomes), BFC substrate; settings: recombinant CYP3A4-b5 (Invitrogen), 5 uM BFC, 200 uM NADPH, pre-incubation at least 30 minutes, pH 7.0, room temperature
T2 construct: purchased Invitrogen (Carlsbad, Calif.)
T2 sequence (P08684 whole entry): as above
Experimental: 1. Determination of Compound Kiapp
A determination of the Kiapp of the compounds of the invention against recombinant CYP3A4 enzyme was performed as follows. The assay was performed in a 100 mM sodium phosphate buffer pH 7.0, 5 mM TCEP and containing 2% dimethylformamide (final concentration) upon addition of substrate and inhibitor. A typical reaction for the determination of Kiapp values was carried at room temperature in a solid black Costar u-bottom 96-well polypropylene plate. […] When pre-incubation was completed (˜30 min), the reaction was initiated by adding NADPH (200 uM, final concentration), and 7-benzyloxy-4-(trifluoromethyl)-coumarin (BFC) (5 uM, final concentration). The oxidation of the coumarin substrate was recorded by a 96-well plate reader POLARstar (BMG LABTECH, Offenburg, Germany).
The initial reaction velocities were measured during the first 5 min of the reaction when the release of the fluorescent product is linear with time, in the absence and in the presence of various concentrations of inhibitors.
The fluorescent substrate BFC was purchased from Sigma (St Louis, Mo.). Two commercial sources of recombinant enzymes were used in this study: recombinant CYP3A4-b5 enzyme (Baculosomes®) was purchased from Invitrogen (Carlsbad, Calif.) and the recombinant CYP3A4+b5 enzyme (Supersomes®) was purchased from BD Biosciences (Woburn, Mass.).

Compound	IC50 [1]	IC50 [2]	Ki [3]
N[C@@H]1CCN(C(=O)Cn2nc(-c3ccncc3)cc2Cc2ccc(F)cc2)C1 [Example 65, (3R)-1-{[5-(4-fluorobenzyl)-3-pyridin-4-yl-1H-pyrazol-1-yl]acetyl}pyrrolidin-3-amine]	0.134 µM	0.059 µM	0.673 µM
CS(=O)(=O)N1CC(n2nc(-c3ccncc3)cc2Cc2ccc(F)cc2)C1 [Example 23, 4-{5-(4-fluorobenzyl)-1-[1-(methylsulfonyl)azetidin-3-yl]-1H-pyrazol-3-yl}pyridine]	0.218 µM	0.375 µM	0.159 µM
CN1CCN(C(=O)Cn2nc(-c3ccncc3)cc2Cc2ccc(F)cc2)CC1 [Example 61, 1-{[5-(4-fluorobenzyl)-3-pyridin-4-yl-1H-pyrazol-1-yl]acetyl}-4-methylpiperazine]	0.038 µM	0.016 µM	0.134 µM
O=C(Cn1nc(-c2ccncc2)cc1Cc1ccc(F)cc1)N1CCC(N2CCCC2=O)CC1 [Example 5, 1(1-{[5-(4-fluorobenzyl)-3-pyridin-4-yl-1H-pyrazol-1-yl]acetyl}piperidin-4-yl)pyrrolidin-2-one]	0.033 µM	0.01 µM	0.085 µM
CC(C)(CN1CCOCC1)NC(=O)Cn1nc(-c2ccncc2)cc1Cc1ccc(F)cc1 [Example 54, N-(1,1-dimethyl-2-morpholin-4-ylethyl)-2-[5-(4-fluorobenzyl)-3-pyridin-4-yl-1H-pyrazol-1-yl]acetamide]	< 0.012 µM	< 0.012 µM	0.0085 µM
O=C(Cn1nc(-c2ccncc2)cc1Cc1ccc(F)cc1)N1CCC[C@H]1CO [Example 77, [(2S)-1-{[5-(4-fluorobenzyl)-3-pyridin-4-yl-1H-pyrazol-1-yl]acetyl}pyrrolidin-2-yl]methanol]	0.0545 µM	0.0511 µM	0.166 µM
Cc1cc(CNC(=O)Cn2nc(-c3ccncc3)cc2Cc2ccc(F)cc2)on1 [Example 86, 2-[5-(4-fluorobenzyl)-3-pyridin-4-yl-1H-pyrazol-1-yl]-N-[(3-methylisoxazol-5-yl)methyl]acetamide]	0.013 µM	0.018 µM	0.0571 µM
Fc1ccc(Cc2cc(-c3ccncc3)nn2C2CN(C(c3ccccc3)c3ccccc3)C2)cc1 [Example 20, 4-[1-[1-(diphenylmethyl)azetidin-3-yl]-5-(4-fluorobenzyl)-1H-pyrazol-3-yl]pyridine]	0.251 µM	0.228 µM	0.0365 µM
CCc1nc(CNC(=O)Cn2nc(-c3ccncc3)cc2Cc2ccc(F)cc2)no1 [Example 80, N-[(5-ethyl-1,2,4-oxadiazol-3-yl)methyl]-2-[5-(4-fluorobenzyl)-3-pyridin-4-yl-1H-pyrazol-1-yl]acetamide]	0.065 µM	0.064 µM	0.0516 µM
NC1CCN(C(=O)Cn2nc(-c3ccncc3)cc2Cc2ccc(F)cc2)CC1 [Example 8, 1-{[5-(4-fluorobenzyl)-3-pyridin-4-yl-1H-pyrazol-1-yl]acetyl}piperidin-4-amine]	0.273 µM	0.114 µM	0.547 µM
Cc1cc(CNC(=O)Cn2nc(-c3ccncc3)cc2Cc2ccc(F)cc2)no1 [Example 88, 2-[5-(4-fluorobenzyl)-3-pyridin-4-yl-1H-pyrazol-1-yl]-N-[(5-methylisoxazol-3-yl)methyl]acetamide]	0.016 µM	0.024 µM	0.0753 µM
O=C(Cn1nc(-c2ccncn2)cc1Cc1ccc(F)cc1)N1CCN(c2ccccn2)CC1 [Example 97, 4-{5-(4-fluorobenzyl)-1-[2-oxo-2-(4-pyridin-2-ylpiperazin-1-yl)ethyl]-1H-pyrazol-3-yl}pyrimidine]	< 0.012 µM	0.045 µM	0.232 µM
C[C@H](O)CNC(=O)Cn1nc(-c2ccncc2)cc1Cc1ccc(F)cc1 [Example 64, 2-[5-(4-fluorobenzyl)-3-pyridin-4-yl-1H-pyrazol-1-yl]-N-[(2S)-2-hydroxypropyl]acetamide]	0.032 µM	0.028 µM	0.185 µM
CC(O)Cn1nc(-c2ccncc2)cc1Cc1ccc(F)cc1 (stereo not drawn) [Example 52, 1-[5-(4-fluorobenzyl)-3-pyridin-4-yl-1H-pyrazol-1-yl]propan-2-ol]	0.056 µM	0.071 µM	0.175 µM
Cc1c(CNC(=O)Cn2nc(-c3ccncc3)cc2Cc2ccc(F)cc2)cnn1C [Example 89, N-[(1,5-dimethyl-1H-pyrazol-4-yl)methyl]-2-[5-(4-fluorobenzyl)-3-pyridin-4-yl-1H-pyrazol-1-yl]acetamide]	0.015 µM	0.016 µM	0.0728 µM
CCS(=O)(=O)NC1CCN(C(=O)Cn2nc(-c3ccncc3)cc2Cc2ccc(F)cc2)CC1 [Example 102, N-(1-(2-[5-(4-fluorobenzyl)-3-pyridin-4-yl-1H-pyrazol-1-yl]acetyl}piperidin-4-yl)ethanesulfonamide]	0.023 µM	0.012 µM	0.107 µM
O=C(Cn1nc(-c2ccncc2)cc1Cc1ccc(F)cc1)NCCN1CCOCC1 [Example 55, 2-[5-(4-fluorobenzyl)-3-pyridin-4-yl-1H-pyrazol-1-yl]-N-(2-morpholin-4-ylethyl)acetamide]	< 0.012 µM	0.044 µM	0.101 µM
CNC1CCN(C(=O)Cn2nc(-c3ccncc3)cc2Cc2ccc(F)cc2)C1 (stereo not drawn) [Example 74, 1-{[5-(4-fluorobenzyl)-3-pyridin-4-yl-1H-pyrazol-1-yl]acetyl}-N-methylpyrrolidin-3-amine]	0.114 µM	0.046 µM	0.19 µM
O=C(c1ncccn1)N1CC(n2nc(-c3ccncc3)cc2Cc2ccc(F)cc2)C1 [Example 68, 2-({3-[5-(4-fluorobenzyl)-3-pyridin-4-yl-1H-pyrazol-1-yl]azetidin-1-yl}carbonyl)pyrimidine]	0.081 µM	0.091 µM	0.137 µM
CCNC(=O)N(C)C1CCN(C(=O)Cn2nc(-c3ccncc3)cc2Cc2ccc(F)cc2)CC1 [Example 115, 3-ethyl-1-(1-{[5-(4-fluorobenzyl)-3-pyridin-4-yl-1H-pyrazol-1-yl]acetyl}piperidin-4-yl)-1-methylurea]	0.015 µM	0.004 µM	0.0338 µM
O=C(Cn1nc(-c2ccncc2)cc1Cc1ccc(F)cc1)NC1CCC1 [Example 53, N-cyclobutyl-2-[5-(4-fluorobenzyl)-3-pyridin-4-yl-1H-pyrazol-1-yl]acetamide]	0.095 µM	0.028 µM	0.034 µM
Cc1nnc(Cn2nc(-c3ccncc3)cc2Cc2ccc(F)cc2)o1 [Example 28, 4-{5-(4-fluorobenzyl)-1-[(5-methyl-1,3,4-oxadiazol-2-yl)methyl]-1H-pyrazol-3-yl}pyridine]	0.0305 µM	0.0792 µM	0.608 µM
CC(C)C(=O)N(C)C1CCN(C(=O)Cn2nc(-c3ccncc3)cc2Cc2ccc(F)cc2)CC1 [Example 11, N-(1-{[5-(4-fluorobenzyl)-3-pyridin-4-yl-1H-pyrazol-1-yl]acetyl}piperidin-4-yl)-N,2-dimethylpropanamide]	0.012 µM	< 0.003 µM	0.00841 µM
NC(=O)[C@@H]1CCC[C@@H]1NC(=O)Cn1nc(-c2ccncc2)cc1Cc1ccc(F)cc1 [Example 84, (1R,2S)-2-({[5-(4-fluorobenzyl)-3-pyridin-4-yl-1H-pyrazol-1-yl]acetyl}amino)cyclo-pentanecarboxamide]	0.041 µM	0.021 µM	0.156 µM
CC(C)(O)CNC(=O)Cn1nc(-c2ccncc2)cc1Cc1ccc(F)cc1 [Example 60, 2-[5-(4-fluorobenzyl)-3-pyridin-4-yl-1H-pyrazol-1-yl]-N-(2-hydroxy-2-methylpropyl)acetamide]	0.032 µM	0.02 µM	0.0765 µM
